Laboratory results from patent US7582803B2 (Amgen Inc., priority 2005, dated 2009).

Each molecule was assayed against T1, human GPR40 (Homo sapiens, UniProt O14842) (assay: Cell-based aequorin assay). Conditions: CHO cells stably transfected with GPR40 and aequorin; 0.01% HSA; aequorin luminescence; read-out: Relative EC50.
T1 construct: expressed in transfected cells; host or cells: CHO cells
Method: Cell-based aequorin assays were employed to characterize the modulatory activity of compounds on the GPR40 signaling pathway. In an exemplary assay, CHO cells were stably transfected with both GPR40 and Aequorin (Euroscreen). Cells were detached from the tissue culture dish with 2 mL of trypsin (0.25% (w/v)). Trypsinization was halted with 28 mL of Hanks Buffered Salt Solution containing 20 mM Hepes (H/HBSS) and 0.01% fatty acid-free human serum albumin (HSA). Coelantrazine is added to 1 ug/mL, and the cells were incubated for 2 hours at room temperature. Compounds were dissolved in DMSO for preparation of 10 mM stock solutions. Compounds were diluted in H/HBSS containing 0.01% HSA. Serial dilutions of the test compounds were prepared to determine dose response.
Aequorin luminescence measurements were made using an EG&G Berthold 96-well luminometer, and the response was measured over a 20 second interval after cells and compounds were mixed. The maximum relative light units was plotted to determine dose response. The EC50 (effective concentration to reach 50% maximal response) was determined from the dose response plot.
Table 1 presents representative data (EC50 values) obtained for exemplary compounds of the invention for the relative activation of human GPR40. […]

T1 sequence (O14842 whole entry): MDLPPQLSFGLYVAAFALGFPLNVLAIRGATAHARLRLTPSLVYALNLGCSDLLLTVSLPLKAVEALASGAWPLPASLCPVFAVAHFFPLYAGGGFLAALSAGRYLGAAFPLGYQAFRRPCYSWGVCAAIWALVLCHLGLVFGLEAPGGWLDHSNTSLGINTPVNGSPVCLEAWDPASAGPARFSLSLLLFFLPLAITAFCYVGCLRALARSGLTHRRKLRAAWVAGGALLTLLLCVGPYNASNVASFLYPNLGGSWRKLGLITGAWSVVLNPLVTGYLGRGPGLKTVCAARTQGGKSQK

Row | Structure (SMILES) | EC50
1 | Cn1nncc1[C@@H](CC(=O)O)c1ccc(OCc2ccc3c(c2)C(C)(C)CCC3(C)C)cc1 [Example 73, (S)-3-(3-methyl-3H-1,2,3-triazol-4-yl)-3-(4-((5,5,8,8-tetramethyl-5,6,7,8-tetrahydronaphthalen-2-yl)methoxy)phenyl)propanoic acid] | 0.01 to 0.1 µM
2 | Cn1cnnc1[C@@H](CC(=O)O)c1ccc(OCc2ccc3c(c2)C(C)(C)CCC3(C)C)cc1 [Example 84] | 0.1 to 1 µM
3 | CC#C[C@@H](CC(=O)O)c1ccc(OC2CCc3c2ccc(OC)c3OC)cc1 (stereo partly drawn) [Example 19, (3S)-3-[4-(4,5-Dimethoxy-indan-1-yloxy)-phenyl]-hex-4-ynoic acid] | 1 to 10 µM
4 | CC1(C)CCC(C)(C)c2cc(COc3ccc([C@H](CC(=O)O)c4cnco4)cc3)ccc21 [Example 75, (S)-3-(Oxazol-5-yl)-3-(4-((5,5,8,8-tetramethyl-5,6,7,8-tetrahydronaphthalen-2-yl)methoxy)phenyl)propanoic acid] | 0.1 to 1 µM
5 | CC#C[C@@H](CC(=O)O)c1ccc(OC2CCc3ccc(OC)cc32)cc1 (stereo partly drawn) [Example 17, (3S)-3-[4-(6-Methoxy-indan-1-yloxy)-phenyl]-hex-4-ynoic acid] | 0.01 to 0.1 µM
6 | CC1(C)CCC(C)(C)c2cc(COc3ccc([C@@H](CC(=O)O)c4ccon4)cc3)ccc21 [Example 77, (R)-3-(Isoxazol-3-yl)-3-(4-((5,5,8,8-tetramethyl-5,6,7,8-tetrahydronaphthalen-2-yl)methoxy)phenyl)propanoic acid] | 1 to 10 µM
7 | CC#C[C@H](CC(=O)O)c1ccc(OC2CCc3cc(-c4cccc(OC)c4F)ccc32)cc1 (stereo partly drawn) [Example 67, (3R)-3-(4-(5-(2-Fluoro-3-methoxyphenyl)-2,3-dihydro-1H-inden-1-yloxy)phenyl)hex-4-ynoic acid] | > 10 µM
8 | CC1(C)CCC(C)(C)c2cc(COc3ccc(C(CC(=O)O)c4cncnc4)cc3)ccc21 (racemic) [Example 79, (R/S)-3-Pyrimidin-5-yl-3-[4-(5,5,8,8-tetramethyl-5,6,7,8-tetrahydro-naphthalen-2-ylmethoxy)-phenyl]-propionic acid] | 1 to 10 µM
9 | CC#C[C@@H](CC(=O)O)c1ccc(OC2CCc3cc(OC)ccc32)cc1 (stereo partly drawn) [Example 18, (3S)-3-[4-(5-Methoxy-indan-1-yloxy)-phenyl]-hex-4-ynoic acid] | 0.01 to 0.1 µM
10 | Cn1ccnc1[C@@H](CC(=O)O)c1ccc(OCc2ccc3c(c2)CCCC3)cc1 [Example 80, (S)-3-(i-Methyl-1H-imidazol-2-yl)-3-[4-(5,6,7,8-tetrahydro-naphthalen-2-ylmethoxy)-phenyl]-propionic acid] | 0.1 to 1 µM
11 | O=C(O)CC(c1ccc(OC2CCCCc3ccccc32)cc1)c1cccs1 (racemic) [Example 49, (+/−)3-(4-(6,7,8,9-Tetrahydro-5H-benzo[7]annulen-5-yloxy)phenyl)-3-(thiophen-2-yl)propanoic acid] | 1 to 10 µM
12 | CC#C[C@H](CC(=O)O)c1ccc(OC2CCc3cc(-c4cccc(OC)c4OC)ccc32)cc1 (stereo partly drawn) [Example 61, (3R)-3-(4-(5-(2,3-Dimethoxyphenyl)-2,3-dihydro-1H-inden-1-yloxy)phenyl)hex-4-ynoic acid] | > 10 µM
13 | O=C(O)CC(c1ccc(OC2Cc3ccccc3C2)cc1)c1cc(F)ccc1F (racemic) [Example 37, (+/−)3-(2,5-Difluorophenyl)-3-(4-(2,3-dihydro-1H-inden-2-yloxy)phenyl)propanoic acid] | 0.1 to 1 µM
14 | CC#C[C@@H](CC(=O)O)c1ccc(OC2CCc3cc(F)ccc32)cc1 (stereo partly drawn) [Example 14, (3S)-3-(4-(5-Fluoro-2,3-dihydro-1H-inden-1-yloxy)phenyl)hex-4-ynoic acid] | 0.01 to 0.1 µM
15 | Cc1ccc(C(CC(=O)O)c2ccc(OC3CCc4cc(Cl)ccc43)cc2)s1 (racemic) [Example 23, (+/−)-3-(4-(5-Chloro-2,3-dihydro-1H-inden-1-yloxy)phenyl)-3-(5-methylthiophen-2-yl)propanoic acid] | 1 to 10 µM
